Assay results taken from patent US8008490B2, “Polymorphic forms of aripiprazole and method” (Sandoz AG, priority 2005, dated 2011).

What was measured:
[1] = Moisture sorption isotherm (hygroscopicity); assay type: physicochemical; details: FIG. 10
[2] = Solution mediated transformation of aripiprazole forms (thermodynamic stability); assay type: physicochemical; details: at temperatures at and below about 60° C.

**Q.** For O=C1CCc2ccc(OCCCCN3CCN(c4cccc(Cl)c4Cl)CC3)cc2N1 [Form X of aripiprazole, 7-[4-[4-(2,3-dichlorophenyl)-1-piperazinyl]butoxy]-3,4-dihydro-2(1H)-quinolinone], which “conversion into a hydrated form of aripiprazole” value [1] is on record?
**A.** does not substantially convert into a hydrated form of aripiprazole

**Q.** And the hygroscopicity [1]?
**A.** low hygroscopicity

**Q.** What about the “thermodynamic stability (Gibbs free energy relative to other forms of aripiprazole)” value [2] of the same molecule?
**A.** lowest Gibbs free energy
